Results as given in article PMC5931996 (Scientific Reports, 2018).

Columns and labels:
[1] = tested on: 5-HTP-induced head twitches in rats; test: 5-HTP-induced head twitch; type: in vivo, SD rats; details: mean ± S.E.M.
Protocol: SD rats (200–250 g, 8 animals/ group) were housed in the test room for at least 1 h before the experiment. […] Then, all animals were intraperitoneally injected with 0.9% saline or 5-HTP (320 mg/kg) 40 min before the test. The number of head twitches was recorded during a period of 40–70 min after intraperitoneal injection.

[2] = tested on: MK-801-treated rats; test: Morris water maze test, subchronic administration, MK-801-treated rats; type: in vivo, SD rats
Protocol: The MWM test was started after the last injection. Each rat was trained in 4 trials per day for 5 consecutive days. The escape latency to find the submerged escape platform in the water maze was recorded with the TopScan monitoring system. Each training session lasted for a maximum of 60 s. If the escape latency exceeded 60 s, it was recorded as 60 s and the rat was manually guided to the platform. On day 6, the platform was removed and each rat was allowed to swim freely for 60 s.

[3] = tested on: MK-801-induced locomotor hyperactivity in rats; test: Inhibition of MK-801-induced hyperactivity; type: in vivo, SD rats; details: mean ± S.E.M.
Protocol: […]. […] Animals were returned to the activity chambers after the intraperitoneal injection, and locomotor activity as quantitated as the distance travelled (mm) was recorded for 10 to 20 minutes using the TopScan monitoring system. At the end of each trial, the faecal boli were cleaned to avoid the potential influence of intramaze cues (odour trails, etc.) on the rats[36].

[4] = tested on: MK-801-treated rats; test: Morris water maze test, acute administration, MK-801-treated rats; type: in vivo, SD rats; details: mean ± S.E.M.
Protocol: SD rats (200–250 g, 8 animals/ group) were trained continuously until all rats found the platform within 30 sec, and the training time depended on the training results. […]. Then, all animals were intraperitoneal injections of 0.9% saline or MK-801 (0.2 mg/kg, i.p.) 30 minutes before the test. The test was started and the escape latency of rats was measured during the test in which platform was not withdrawn. A trial was deemed complete as soon as the rat had located platform or when 60 s had elapsed, whichever occurred first. The swimming activity of each rat was monitored by TopScan monitoring system. At the end of each trial, the maze was cleaned. The maze was rotated by clockwise after each training day to avoid potential intramaze cues (odour trails, etc.)[38].

[5] = tested on: MK-801-induced NOR deficit in rats; test: Novel object recognition (NOR) test; details: MK-801 0.3 mg/kg i.p. day 15–28 with vehicle (model group)
Protocol: Rats were testing after the last administration. Following a 10-min habituation session on the day of testing, each rat was placed in the NOR chamber (grey PVC boxes 60*60 cm wide and 45 cm deep) and exposed to two identical objects (Left and Right) for a period of 10 min (Acquisition Trial). The objects used in this experiment were rectangular plastic cases. […] Rats were then returned to their home cage for an inter-trial interval (ITI) of 1.5 h and the entire box was cleaned. Then one was replaced with an identical familiar copy and one was replaced with a novel object. Following the ITI, rats were returned to the apparatus and allowed to explore the familiar and novel objects in the test box for a 10-min retention trial (Retention Trial). All experiments were monitored by TopScan monitoring system[39].

[6] = biological target: T1, human α1B receptor (Homo sapiens, UniProt P35368); test: Radioligand binding assay, α1B receptor; details: radioligand displacement, transfected HEK-293 cells; read-out: Receptor binding affinity (Ki), α1B
T1 construct: expressed in transfected cells; host or cells: HEK-293
T1 sequence (P35368 1-520): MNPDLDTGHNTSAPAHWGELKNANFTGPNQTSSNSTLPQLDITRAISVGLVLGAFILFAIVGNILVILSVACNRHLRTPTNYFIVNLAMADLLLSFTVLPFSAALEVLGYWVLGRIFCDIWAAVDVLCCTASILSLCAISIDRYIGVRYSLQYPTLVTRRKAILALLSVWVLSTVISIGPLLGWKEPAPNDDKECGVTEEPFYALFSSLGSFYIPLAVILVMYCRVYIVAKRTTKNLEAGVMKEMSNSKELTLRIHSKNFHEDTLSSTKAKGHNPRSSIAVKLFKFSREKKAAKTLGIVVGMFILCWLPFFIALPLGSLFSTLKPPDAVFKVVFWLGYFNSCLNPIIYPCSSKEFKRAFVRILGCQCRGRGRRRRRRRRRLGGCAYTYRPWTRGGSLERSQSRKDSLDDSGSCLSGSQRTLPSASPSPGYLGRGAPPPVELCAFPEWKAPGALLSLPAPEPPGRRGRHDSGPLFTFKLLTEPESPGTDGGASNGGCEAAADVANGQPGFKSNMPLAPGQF
Protocol: (§1) The affinity of compounds for the human dopamine D2, D3, D4, 5-HT2A, 5-HT2B, 5-HT2C, 5-HT6, 5-HT7, H1, α1A, and α1B receptors in transfected HEK-293 cells was determined using a radioligand binding assay. Cell membrane homogenates were incubated in the absence or presence of the test compound in a buffer. Nonspecific binding was measured in the presence of the standard reference compound. Following incubation, samples were rapidly filtered under a vacuum through glass fibre filters (GF/B, Packard) presoaked with 0.3% PEI and rinsed several times with ice-cold 50 mM Tris-HCl using a 96-sample cell harvester (Unifilter, Packard). Filters were dried and then radioactivity was counted in a scintillation counter (Topcount, Packard) using a scintillation cocktail (Microscint 0, Packard). The results are expressed as percent inhibition of the specific binding of the radioligand in the control. The standard reference compound was tested in each experiment at several concentrations to obtain a competition curve from which its Ki was calculated.

[7] = biological target: T2, human 5-HT2C receptor (Homo sapiens, UniProt P28335); test: Radioligand binding assay, 5-HT2C receptor; details: radioligand displacement, transfected HEK-293 cells; read-out: Receptor binding affinity (Ki), 5-HT2C
T2 construct: expressed in transfected cells; host or cells: HEK-293
T2 sequence (P28335 33-458): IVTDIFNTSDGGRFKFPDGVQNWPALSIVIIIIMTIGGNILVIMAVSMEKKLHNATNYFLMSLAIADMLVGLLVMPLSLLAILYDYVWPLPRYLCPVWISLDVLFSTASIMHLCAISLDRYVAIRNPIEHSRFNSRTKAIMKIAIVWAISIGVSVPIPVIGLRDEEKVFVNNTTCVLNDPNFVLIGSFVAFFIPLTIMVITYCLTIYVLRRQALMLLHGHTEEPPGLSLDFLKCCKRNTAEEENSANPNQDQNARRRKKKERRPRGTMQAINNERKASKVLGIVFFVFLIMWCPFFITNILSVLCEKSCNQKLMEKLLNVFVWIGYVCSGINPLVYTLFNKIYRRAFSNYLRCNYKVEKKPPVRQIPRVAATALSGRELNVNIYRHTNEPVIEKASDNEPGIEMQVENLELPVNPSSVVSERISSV
Protocol: as §1

[8] = biological target: T3, human 5-HT6 receptor (Homo sapiens, UniProt P50406); test: Radioligand binding assay, 5-HT6 receptor; details: radioligand displacement, transfected HEK-293 cells; read-out: Receptor binding affinity (Ki), 5-HT6
T3 construct: expressed in transfected cells; host or cells: HEK-293
Protocol: as §1

[9] = biological target: T4, human H1 receptor (Homo sapiens, UniProt P35367); test: Radioligand binding assay, H1 receptor; details: radioligand displacement, transfected HEK-293 cells; read-out: Receptor binding affinity (Ki), H1
T4 construct: expressed in transfected cells; host or cells: HEK-293
Protocol: as §1

[10] = biological target: T5, human 5-HT2B receptor (Homo sapiens, UniProt P41595); test: Radioligand binding assay, 5-HT2B receptor; details: radioligand displacement, transfected HEK-293 cells; read-out: Receptor binding affinity (Ki), 5-HT2B
T5 construct: expressed in transfected cells; host or cells: HEK-293
Protocol: as §1

[11] = tested on: mice; test: Forelimb catalepsy in mice; details: NIH, mouse, in vivo, po, 1 h
Protocol: Then each mouse was positioned such that both front paws rested on a […] diameter steel rod (covered with non-slippery tape) placed 3.5 cm above the surface of the bench. The period of time that each mouse maintained this position was recorded. The experiment was repeated at least 10 times. Finally, the longest period of catalepsy for each mouse was recorded.

[12] = biological target: human 5-HT2A receptor (Homo sapiens, UniProt P28223); test: Radioligand binding assay, 5-HT2A receptor; details: radioligand displacement, transfected HEK-293 cells; read-out: Receptor binding affinity (Ki), 5-HT2A
[13] = biological target: T6, human α1A receptor (Homo sapiens, UniProt P35348); test: Radioligand binding assay, α1A receptor; details: radioligand displacement, transfected HEK-293 cells; read-out: Receptor binding affinity (Ki), α1A
T6 construct: expressed in transfected cells; host or cells: HEK-293
T6 sequence (P35348 1-466): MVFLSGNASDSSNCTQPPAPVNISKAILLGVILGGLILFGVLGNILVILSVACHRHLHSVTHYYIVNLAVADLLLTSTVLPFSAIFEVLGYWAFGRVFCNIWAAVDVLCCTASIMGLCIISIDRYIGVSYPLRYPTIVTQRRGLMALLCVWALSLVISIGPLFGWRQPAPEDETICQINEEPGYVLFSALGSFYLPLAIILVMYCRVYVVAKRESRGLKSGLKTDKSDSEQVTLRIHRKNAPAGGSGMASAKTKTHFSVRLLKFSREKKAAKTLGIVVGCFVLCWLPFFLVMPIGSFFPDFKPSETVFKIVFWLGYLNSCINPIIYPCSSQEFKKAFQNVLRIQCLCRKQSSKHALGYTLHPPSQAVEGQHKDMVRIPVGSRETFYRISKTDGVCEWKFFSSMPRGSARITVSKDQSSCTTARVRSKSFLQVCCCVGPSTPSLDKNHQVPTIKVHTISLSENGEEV
Protocol: as §1

[14] = biological target: T7, human 5-HT7 receptor (Homo sapiens, UniProt P34969); test: Radioligand binding assay, 5-HT7 receptor; details: radioligand displacement, transfected HEK-293 cells; read-out: Receptor binding affinity (Ki), 5-HT7
T7 construct: expressed in transfected cells; host or cells: HEK-293
Protocol: as §1

[15] = tested on: plasma prolactin; test: Plasma prolactin levels in rats (ELISA); type: in vivo; details: 0.2 mg/kg for 28 days, mean ± S.E.M.
Protocol: […]. Plasma prolactin levels were assessed using a commercially available Prolactin ELISA (Mouse/Rat) purchased from GenWay, according to the manufacturer’s instructions. Plasma TC and triglyceride levels were assessed using a Roche automatic biochemical analyser Cobas c 311.

[16] = Body weight of rats after 28 days of dosing; type: in vivo; details: 0.2 mg/kg for 28 days, mean ± S.E.M.
[17] = […] oral 1 h before test, 5-HTP 320 mg/kg i.p., 40–70 min after injection
[18] = […] oral 1 h before test, MK-801 0.3 mg/kg i.p.
[19] = […] oral 1 h before test, MK-801 0.2 mg/kg i.p.

T7 sequence (P34969 whole entry): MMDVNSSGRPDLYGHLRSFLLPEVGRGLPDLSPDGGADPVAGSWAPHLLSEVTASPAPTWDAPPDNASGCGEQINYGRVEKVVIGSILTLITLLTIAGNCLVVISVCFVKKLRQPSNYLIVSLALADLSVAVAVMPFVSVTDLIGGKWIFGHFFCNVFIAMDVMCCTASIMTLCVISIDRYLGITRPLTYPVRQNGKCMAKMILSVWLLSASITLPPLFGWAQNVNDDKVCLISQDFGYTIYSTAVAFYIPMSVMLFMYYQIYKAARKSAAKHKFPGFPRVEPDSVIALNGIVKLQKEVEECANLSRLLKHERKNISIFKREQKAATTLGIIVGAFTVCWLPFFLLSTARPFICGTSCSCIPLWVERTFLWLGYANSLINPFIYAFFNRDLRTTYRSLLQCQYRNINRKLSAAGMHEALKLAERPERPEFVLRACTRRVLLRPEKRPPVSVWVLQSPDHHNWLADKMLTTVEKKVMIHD
T3 sequence (P50406 whole entry): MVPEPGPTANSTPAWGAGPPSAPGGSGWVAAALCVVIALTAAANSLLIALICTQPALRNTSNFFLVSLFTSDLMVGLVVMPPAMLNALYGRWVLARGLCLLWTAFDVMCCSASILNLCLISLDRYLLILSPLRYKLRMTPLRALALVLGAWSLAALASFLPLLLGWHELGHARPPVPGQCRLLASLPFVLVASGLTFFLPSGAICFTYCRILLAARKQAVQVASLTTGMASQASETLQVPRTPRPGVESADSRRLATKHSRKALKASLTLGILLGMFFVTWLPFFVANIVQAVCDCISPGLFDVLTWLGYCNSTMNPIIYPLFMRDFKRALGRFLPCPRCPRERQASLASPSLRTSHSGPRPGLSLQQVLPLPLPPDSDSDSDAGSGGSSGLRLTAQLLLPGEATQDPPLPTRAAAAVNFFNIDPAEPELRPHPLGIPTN
T4 sequence (P35367 whole entry): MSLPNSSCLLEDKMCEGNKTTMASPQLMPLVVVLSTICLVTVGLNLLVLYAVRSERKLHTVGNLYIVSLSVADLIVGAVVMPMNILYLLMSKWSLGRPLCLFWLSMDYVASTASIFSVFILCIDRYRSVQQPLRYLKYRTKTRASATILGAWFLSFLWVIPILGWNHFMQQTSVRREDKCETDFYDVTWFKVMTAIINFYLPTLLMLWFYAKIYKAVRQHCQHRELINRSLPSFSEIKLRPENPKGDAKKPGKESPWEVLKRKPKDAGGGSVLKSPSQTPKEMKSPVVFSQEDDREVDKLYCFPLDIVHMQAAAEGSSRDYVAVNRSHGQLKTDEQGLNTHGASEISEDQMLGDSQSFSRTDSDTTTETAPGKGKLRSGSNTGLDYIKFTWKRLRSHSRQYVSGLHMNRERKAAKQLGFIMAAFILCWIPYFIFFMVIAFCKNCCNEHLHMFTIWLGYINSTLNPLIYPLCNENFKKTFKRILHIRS
T5 sequence (P41595 whole entry): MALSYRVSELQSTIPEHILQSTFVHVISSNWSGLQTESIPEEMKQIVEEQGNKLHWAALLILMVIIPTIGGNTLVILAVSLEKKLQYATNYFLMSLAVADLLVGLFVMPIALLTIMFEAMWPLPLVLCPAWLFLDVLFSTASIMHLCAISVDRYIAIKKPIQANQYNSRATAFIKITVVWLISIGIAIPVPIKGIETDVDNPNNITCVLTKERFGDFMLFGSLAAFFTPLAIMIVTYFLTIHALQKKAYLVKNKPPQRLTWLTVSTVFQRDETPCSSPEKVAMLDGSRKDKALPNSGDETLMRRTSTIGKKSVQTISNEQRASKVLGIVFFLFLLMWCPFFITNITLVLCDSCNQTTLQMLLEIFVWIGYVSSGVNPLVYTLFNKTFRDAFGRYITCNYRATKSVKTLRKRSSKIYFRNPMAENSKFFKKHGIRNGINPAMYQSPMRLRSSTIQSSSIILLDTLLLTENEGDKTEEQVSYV
Chain of human 5-HT2A receptor (P28223 whole entry): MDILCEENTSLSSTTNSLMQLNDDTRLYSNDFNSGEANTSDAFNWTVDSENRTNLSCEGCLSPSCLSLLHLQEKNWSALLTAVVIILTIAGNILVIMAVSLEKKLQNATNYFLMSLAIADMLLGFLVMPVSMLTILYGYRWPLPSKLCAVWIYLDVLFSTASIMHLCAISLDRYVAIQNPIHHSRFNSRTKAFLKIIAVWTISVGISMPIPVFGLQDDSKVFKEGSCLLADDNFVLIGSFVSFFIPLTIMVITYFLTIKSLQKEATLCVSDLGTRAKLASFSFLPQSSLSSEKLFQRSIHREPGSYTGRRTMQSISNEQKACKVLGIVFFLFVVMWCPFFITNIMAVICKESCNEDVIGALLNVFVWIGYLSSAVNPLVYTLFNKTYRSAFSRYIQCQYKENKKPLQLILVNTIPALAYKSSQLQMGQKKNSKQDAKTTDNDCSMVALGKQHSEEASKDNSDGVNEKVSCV

In the case of N[C@@H](Cc1c[nH]c2ccc(O)cc12)C(=O)O [5-HTP, reference compound], the “number of head twitches” value ([1]; 5-HTP 320 mg/kg i.p. with vehicle (model group)) is reported as 52.5 ± 2.57.
With O=C1CCc2ccc(OCCCCN3CCN(c4cccc(Cl)c4Cl)CC3)cc2N1 [Aripiprazole, reference compound] the escape latency ([2]; […] oral for 28 days, MK-801 0.3 mg/kg i.p. day 15–28, mean ± S.E.M.) was 31.83 ± 5.00 s, the “number of head twitches” value [1, 17] was 31.5 ± 3.12 and the distance travelled [3, 18] was 1957 ± 455.1 mm. It also gave an escape latency [4, 19] of 21.71 ± 0.86 s.
With C[C@]12N[C@H](Cc3ccccc31)c1ccccc12 [MK-801, reference compound] the escape latency ([2]; MK-801 0.3 mg/kg i.p. day 15–28 with vehicle (model group), mean ± S.E.M.) was 25.56 ± 4.36 s, the distance travelled ([3]; MK-801 0.3 mg/kg i.p. with vehicle (model group)) was 4933 ± 275.6 mm and the escape latency ([4]; MK-801 0.2 mg/kg i.p. with vehicle (model group)) was 35.67 ± 4.05 s. For the same compound, the “Discrimination Index (DI)” value [5] was 0.51 ± 0.04.
With O=C1COc2ccc(OCCCCN3CCN(c4cccc(Cl)c4Cl)CC3)cc2N1 [PCC0104005] the Ki [6] was 3.2 nM, the Ki [7] was 36 nM and the escape latency ([2]; 3.0 mg/kg oral for 28 days, MK-801 0.3 mg/kg i.p. day 15–28, mean ± S.E.M.) was 11.45 ± 2.70 s. The escape latency ([2]; 6.0 mg/kg oral for 28 days, MK-801 0.3 mg/kg i.p. day 15–28, mean ± S.E.M.) was 14.88 ± 2.95 s, the “number of head twitches” value ([1]; 3.0 mg/kg oral 1 h before test, 5-HTP 320 mg/kg i.p., 40–70 min after injection) was 24.86 ± 4.35 and the “number of head twitches” value ([1]; 6.0 mg/kg oral 1 h before test, 5-HTP 320 mg/kg i.p., 40–70 min after injection) was 10.71 ± 4.81. For the same compound, the “number of head twitches” value [1, 17] was 20.17 ± 2.70, the Ki [8] was 85 nM and the distance travelled ([3]; 3.0 mg/kg oral 1 h before test, MK-801 0.3 mg/kg i.p.) was 2646 ± 235.2 mm. The distance travelled ([3]; 6.0 mg/kg oral 1 h before test, MK-801 0.3 mg/kg i.p.) was 2655 ± 286.5 mm, the distance travelled [3, 18] was 3284 ± 220.7 mm and the “distance travelled (spontaneous activity)” value ([3]; administered alone without MK-801, dose not stated) was 1885 ± 269.7 mm. It also gave a Ki [9] of 1.1 nM, an escape latency ([4]; 3.0 mg/kg oral 1 h before test, MK-801 0.2 mg/kg i.p.) of 18.35 ± 2.76 s and an escape latency ([4]; 6.0 mg/kg oral 1 h before test, MK-801 0.2 mg/kg i.p.) of 17.45 ± 1.78 s. The escape latency [4, 19] was 20.60 ± 1.30 s, the Ki [10] was 0.34 nM and the “forelimb catalepsy duration (longest)” value ([11]; 2 mg/kg) was 22.56 ± 2.65 s. The “forelimb catalepsy duration (longest)” value ([11]; 4 mg/kg) was 25.89 ± 3.59 s, the “forelimb catalepsy duration (longest)” value ([11]; 8 mg/kg) was 21.23 ± 2.53 s and the Ki [12] was 5.1 nM. It also gave a Ki [13] of 8.3 nM and a Ki [14] of 5 nM.
With Cc1nc2n(c(=O)c1CCN1CCC(c3noc4cc(F)ccc34)CC1)CCCC2 [Risperidone, reference compound] the escape latency ([2]; 0.2 mg/kg oral for 28 days, MK-801 0.3 mg/kg i.p. day 15–28, mean ± S.E.M.) was 11.81 ± 3.06 s, the “number of head twitches” value ([1]; 0.2 mg/kg oral 1 h before test, 5-HTP 320 mg/kg i.p., 40–70 min after injection) was 9 ± 1.73 and the plasma prolactin level [15] was 5.67 ± 0.51 ng/mL. For the same compound, the distance travelled ([3]; 0.2 mg/kg oral 1 h before test, MK-801 0.3 mg/kg i.p.) was 1886 ± 437.3 mm, the escape latency ([4]; 0.2 mg/kg oral 1 h before test, MK-801 0.2 mg/kg i.p.) was 20.71 ± 2.18 s and the body weights [16] was 116.4 ± 10.51 g.
